Measured values taken from patent US9732370B2, “Method for the determination of the presence of an antibiotic in a fluid” (DSM IP ASSETS B.V., priority 2013, dated 2017).

System: test organism of Delvotest SP-NT
Experiment: Microbial growth inhibition test (DSM Delvotest SP-NT, reference or modified with streptomycin in the test medium): detection limit of antibiotics in spiked milk
Format: cell-based
Settings: for Detection limit: spiked milk, 64° C., cut-off Z-value 0; for Effect of an aminoglycoside antibiotic in the test medium on the sensitivity of the test for the antibiotic: aminoglycoside antibiotic (streptomycin) added to test medium versus reference test
Protocol: As a reference, a commercially available test system without any added aminoglycoside antibiotic (DSM Delvotest® SP-NT, plates containing 8×12 test wells) was used. In addition, two different test systems were prepared by modifying the reference test by adding the aminoglycoside antibiotic streptomycin to the test medium in a final concentration of 100 ppb or 1000 ppb. The detection limits of four different antibiotics were measured in the reference test and in the tests with modified medium containing different concentrations of streptomycin. The antibiotics that were measured were streptomycin and dihydrostreptomycin (DH-streptomycin) (both belonging to the aminoglycoside antibiotic family), penicillin G (belonging to the beta-lactam antibiotic family), and oxytetracycline (belonging to the tetracycline antibiotic family) Five different concentrations of each antibiotic (see Table 1) were measured. Hundred microliter antibiotic-free milk or hundred microliter milk spiked with the respective concentrations of antibiotic was added to the test medium (170 μl) and incubated at 64° C. in a water bath. The tests were visually determined at the point in time where a sample without antibiotic had changed colour from purple to yellow. At this point, the plates were cooled in an ice bath for 5 minutes. The cooled plates were scanned on a Delvo® scanner. The colour of each well was expressed as a Z-value; a purple colour gives rise to a positive Z-value, while a yellow colour has a negative Z-value. The Z-value of test results with samples without antibiotic is typically […]. Detailed description of the scanning technology and the expression of the colour in Z-values are described in WO 03/033728. For the determination of the detection limit for each antibiotic, a dose-response function (Z-value versus concentration of antibiotic) was constructed. The detection limit is defined as the antibiotic concentration where the S-shaped dose-response function has a Z-value equal to the cut-off value. For Delvotest® SP-NT a cut-off Z-value of 0 was used.

[1] = Streptomycin concentration in test 0 ppb (reference Delvotest SP-NT)
[2] = Streptomycin concentration in test 100 ppb
[3] = Streptomycin concentration in test 1000 ppb

Work on `CN(C)[C@@H]1C(O)=C(C(N)=O)C(=O)[C@@]2(O)C(O)=C3C(=O)c4c(O)cccc4[C@@](C)(O)[C@H]3[C@H](O)[C@@H]12` [Oxytetracycline, oxytetracycline] yielded a Detection limit [1] of 264 ppb, a Detection limit [2] of 239 ppb and a Detection limit [3] of 343 ppb. The “Effect of an aminoglycoside antibiotic in the test medium on the sensitivity of the test for the antibiotic” value (“Effect of an aminoglycoside antibiotic” below) was “no effect”.

Molecule `CC1(C)S[C@@H]2[C@H](NC(=O)Cc3ccccc3)C(=O)N2[C@H]1C(=O)O` [Penicillin G, penicillin G] has a Detection limit [1] of 1.04 ppb, a Detection limit [2] of 0.95 ppb and a Detection limit [3] of 1.07 ppb. For the same molecule, the “Effect of an aminoglycoside antibiotic” value was “no effect”.

In the case of `CN[C@@H]1[C@H](O[C@H]2[C@H](O[C@H]3[C@H](O)[C@@H](O)[C@H](NC(=N)N)[C@@H](O)[C@@H]3NC(=N)N)O[C@@H](C)[C@]2(O)CO)O[C@@H](CO)[C@H](O)[C@H]1O` [DH-streptomycin, dihydrostreptomycin], the Detection limit [2] was 982 ppb, the Detection limit [3] was 445 ppb and the “Effect of an aminoglycoside antibiotic” value was “increases”.

`[H]/N=C(/N)N[C@H]1[C@H](O)[C@@H](O)[C@H](O[C@@H]2O[C@@H](C)[C@](O)(C=O)[C@H]2O[C@@H]2O[C@@H](CO)[C@H](O)[C@@H](O)[C@@H]2NC)[C@@H](N/C(N)=N\[H])[C@@H]1O` [Streptomycin, streptomycin] was tested, and the Detection limit [2] was 1186 ppb, the Detection limit [3] was 676 ppb and the “Effect of an aminoglycoside antibiotic” value was “increases”.
